Measurements from article PMC9652372, “Glycolytic flux control by drugging phosphoglycolate phosphatase” (Nature Communications, 2022).
In brackets after ≈: the same amount, converted by molar mass. Several values for one entry are separate records, joined by “and”; a condition that tells them apart may be missing. Equal entries are not always repeated. Where two headings read alike, the source gives them in different places.

How the values were obtained:
PGP^WT = target: T1, PGP^WT (Mus musculus, UniProt Q8CHP8); assay: Differential scanning fluorimetry (Thermofluor); format: binding
T1 construct: His6 (N, cleaved yes); made in house; host or cells: Escherichia coli BL21 (DE3), pETM11, co-expressed with groES-groEL-tig
T1 sequence (Q8CHP8 1-321): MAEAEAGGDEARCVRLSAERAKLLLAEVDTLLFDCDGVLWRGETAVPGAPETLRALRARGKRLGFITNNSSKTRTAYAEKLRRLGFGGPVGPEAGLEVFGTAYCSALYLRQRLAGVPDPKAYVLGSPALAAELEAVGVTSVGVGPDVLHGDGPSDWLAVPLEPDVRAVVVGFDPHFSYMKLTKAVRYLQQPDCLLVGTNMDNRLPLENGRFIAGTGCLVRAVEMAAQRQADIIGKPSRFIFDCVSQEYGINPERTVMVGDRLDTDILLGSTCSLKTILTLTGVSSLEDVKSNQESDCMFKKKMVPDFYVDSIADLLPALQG

physchem = settings: organic solvent or mixture
murine PGP [1] = target: T2, murine PGP (Mus musculus, UniProt Q8CHP8); assay: IC50 determination, murine PGP, pNPP dephosphorylation
T2 sequence (Q8CHP8 1-321): T1 sequence (Q8CHP8 1-321)

murine PDXP/PGP hybrid = target: T3, murine PDXP/PGP hybrid (Mus musculus, UniProt P60487+Q8CHP8); assay: PG dephosphorylation by PDXP/PGP hybrid protein; format: biochemical
T3 construct: consisting of the PGP cap domain (amino acids 114–233) fused to the PDXP core domain; His6 (N, cleaved yes); made in house; host or cells: Escherichia coli BL21 (DE3), pETM11
T3 sequence (P60487 1-100): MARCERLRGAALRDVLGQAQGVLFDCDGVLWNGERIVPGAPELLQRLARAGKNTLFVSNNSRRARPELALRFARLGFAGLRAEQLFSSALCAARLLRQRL
T3 sequence (Q8CHP8 114-233): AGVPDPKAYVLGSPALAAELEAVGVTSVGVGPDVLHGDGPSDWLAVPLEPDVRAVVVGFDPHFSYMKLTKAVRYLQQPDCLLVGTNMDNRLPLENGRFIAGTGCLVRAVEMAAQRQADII
T3 sequence (P60487 208-292): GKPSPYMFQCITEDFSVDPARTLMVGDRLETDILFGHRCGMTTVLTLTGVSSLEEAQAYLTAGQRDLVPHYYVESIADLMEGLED

murine PGP [2] = target: T2, murine PGP; assay: biochemical
PGP = target: T4, PGP (Mus musculus, UniProt Q8CHP8); assay: Steady state kinetics of PG dephosphorylation in presence of CP1-3
T4 sequence (Q8CHP8 1-321): T1 sequence (Q8CHP8 1-321)

murine PDXP = target: T5, murine PDXP (Mus musculus, UniProt P60487); assay: PDXP activity towards pyridoxal 5'-phosphate (PLP); settings: phosphatase PDXP; species M.m.; substrate PLP; n.s. = no significant inhibition detectable
T5 sequence (P60487 1-292): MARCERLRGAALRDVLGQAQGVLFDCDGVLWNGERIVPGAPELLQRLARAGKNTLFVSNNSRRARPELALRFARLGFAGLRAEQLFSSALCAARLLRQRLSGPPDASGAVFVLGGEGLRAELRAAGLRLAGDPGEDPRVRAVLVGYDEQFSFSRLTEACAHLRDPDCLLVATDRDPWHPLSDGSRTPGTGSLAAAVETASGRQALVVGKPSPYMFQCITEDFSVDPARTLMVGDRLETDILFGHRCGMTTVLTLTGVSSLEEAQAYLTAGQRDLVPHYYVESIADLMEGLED

[3] = PG dephosphorylation, increasing CP concentrations

TM (PGP^WT; Inhibitor 0.146484 µM): 66.4 °C
TM (PGP^WT; Inhibitor 0.292969 µM): 66.5 °C
TM (PGP^WT; Inhibitor 0.585938 µM): 66.5 °C
TM (PGP^WT; Inhibitor 1.17188 µM): 66.5 °C
TM (PGP^WT; Inhibitor 2.34375 µM): 66.6 °C
TM (PGP^WT; Inhibitor 4.6875 µM): 66.8 °C
TM (PGP^WT; Inhibitor 9.375 µM): 67.7 °C
TM (PGP^WT; Inhibitor 18.75 µM): 68.2 °C
TM (PGP^WT; Inhibitor 37.5 µM): 68.6 °C
TM (PGP^WT; Inhibitor 75 µM): 68.6 °C
TM (PGP^WT; Inhibitor 150 µM): 67.9 °C
increase in the maximal PGP melting temperature (PGP^WT; from 66.4 °C (control conditions)): 2.2 °
solubility (physchem): 15 mM (≈ 9220 µg/mL)
IC50 (murine PGP [1]): 4760 ± 1190 nM
remaining activity at 50 µM (murine PGP [1]; read-out: M.m PGP on pNPP, activity, control = 100.00, CP log[M] -4.30103): 28.4%
remaining activity at 25 µM (murine PGP [1]; read-out: M.m PGP on pNPP, activity, control = 100.00, CP log[M] -4.60206): 32.2%
remaining activity at 10 µM (murine PGP [1]; read-out: M.m PGP on pNPP, activity, control = 100.00, CP log[M] -5): 43.5%
remaining activity at 5 µM (murine PGP [1]; read-out: M.m PGP on pNPP, activity, control = 100.00, CP log[M] -5.30103): 58.6%
remaining activity at […] (murine PGP [1]; read-out: M.m PGP on pNPP, activity, control = 100.00, CP log[M] -5.60206): 63.7%
remaining activity at 1 µM (murine PGP [1]; read-out: M.m PGP on pNPP, activity, control = 100.00, CP log[M] -6): 94.7%
remaining activity at 0.5 µM (murine PGP [1]; read-out: M.m PGP on pNPP, activity, control = 100.00, CP log[M] -6.30103): 85.5%
remaining activity at […] (murine PGP [1]; read-out: M.m PGP on pNPP, activity, control = 100.00, CP log[M] -6.60206): 93.2%
remaining activity at 0.125 µM (murine PGP [1]; read-out: M.m PGP on pNPP, activity, control = 100.00, CP log[M] -6.90309): 91.7%
remaining activity at 0.0625 µM (murine PGP [1]; read-out: M.m PGP on pNPP, activity, control = 100.00, CP log[M] -7.20412): 105%
remaining activity at 0.03125 µM (murine PGP [1]; read-out: M.m PGP on pNPP, activity, control = 100.00, CP log[M] -7.50515): 94%
remaining activity at 64 µM (murine PDXP/PGP hybrid; activity, control = 100, CP log[M] -4.19382): 17.6%
remaining activity at 32 µM (murine PDXP/PGP hybrid; activity, control = 100, CP log[M] -4.49485): 16%
remaining activity at 16 µM (murine PDXP/PGP hybrid; activity, control = 100, CP log[M] -4.79588): 23.7%
remaining activity at 4 µM (murine PDXP/PGP hybrid; activity, control = 100, CP log[M] -5.39794): 48.1%
remaining activity at 2 µM (murine PDXP/PGP hybrid; activity, control = 100, CP log[M] -5.69897): 55.7%
remaining activity at 1 µM (murine PDXP/PGP hybrid; activity, control = 100, CP log[M] -6): 80.9%
remaining activity at 0.5 µM (murine PDXP/PGP hybrid; activity, control = 100, CP log[M] -6.30103): 90.8%
remaining activity at […] (murine PDXP/PGP hybrid; activity, control = 100, CP log[M] -6.60206): 93.9%
remaining activity at 0.125 µM (murine PDXP/PGP hybrid; activity, control = 100, CP log[M] -6.90309): 94.7%
remaining activity at 0.0625 µM (murine PDXP/PGP hybrid; activity, control = 100, CP log[M] -7.20412): 87.8%
remaining activity at 0.015625 µM (murine PDXP/PGP hybrid; activity, control = 100, CP log[M] -7.80618): 101%
IC50 (murine PDXP/PGP hybrid; phosphatase PDXP/PGP, species M.m., substrate PG): 2570 ± 230 nM
IC50 (murine PGP [2]): 1580 nM and 700 nM
mode of PGP inhibition (PGP): competitive inhibitors
vmax (PGP; CP 1.0 µM): 49.7 ± 4.0 µmol/min/mg
vmax (PGP; CP 2.0 µM): 51.9 ± 5.9 µmol/min/mg
vmax (PGP; CP 4.0 µM): 36.9 ± 4.8 µmol/min/mg
effect on vmax (reduction) (PGP; [3]): without affecting vmax
increase of KM (PGP; [3]): ~ 3 fold
IC50 (murine PDXP): n.s.
Structure (SMILES): COc1ccc(C(=O)Nc2ccc(Cc3ccc(NC(=O)c4ccc(OC)c(OC)c4)c(C(=O)O)c3)cc2C(=O)O)cc1OC [CP2]
PGP activity (PGP; 1 µM CP2, PG 25 µM): 1.021 µmol Pi/min/mg and 0.7809 µmol Pi/min/mg and 1.201 µmol Pi/min/mg
PGP activity (PGP; 1 µM CP2, PG 50 µM): 2.343 µmol Pi/min/mg and 1.682 µmol Pi/min/mg and 2.403 µmol Pi/min/mg
PGP activity (PGP; 1 µM CP2, PG 100 µM): 4.865 µmol Pi/min/mg and 4.265 µmol Pi/min/mg and 4.986 µmol Pi/min/mg
PGP activity (PGP; 1 µM CP2, PG 200 µM): 9.31 µmol Pi/min/mg and 8.409 µmol Pi/min/mg and 9.7309 µmol Pi/min/mg
PGP activity (PGP; 1 µM CP2, PG 300 µM): 14.9605 µmol Pi/min/mg and 10.9951 µmol Pi/min/mg and 14.0593 µmol Pi/min/mg
PGP activity (PGP; 1 µM CP2, PG 400 µM): 18.0247 µmol Pi/min/mg and 16.763 µmol Pi/min/mg and 17.3037 µmol Pi/min/mg
PGP activity (PGP; 1 µM CP2, PG 500 µM): 19.8272 µmol Pi/min/mg and 20.5481 µmol Pi/min/mg and 19.4667 µmol Pi/min/mg
PGP activity (PGP; 1 µM CP2, PG 600 µM): 21.8099 µmol Pi/min/mg and 21.6296 µmol Pi/min/mg
PGP activity (PGP; 1 µM CP2, PG 700 µM): 22.7111 µmol Pi/min/mg and 24.1531 µmol Pi/min/mg and 23.6123 µmol Pi/min/mg
PGP activity (PGP; 1 µM CP2, PG 800 µM): 21.8099 µmol Pi/min/mg and 23.0716 µmol Pi/min/mg and 24.8741 µmol Pi/min/mg
PGP activity (PGP; 2 µM CP2, PG 25 µM): 0.7809 µmol Pi/min/mg and 0.7208 µmol Pi/min/mg and 0.9611 µmol Pi/min/mg
PGP activity (PGP; 2 µM CP2, PG 50 µM): 1.081 µmol Pi/min/mg and 1.682 µmol Pi/min/mg and 1.982 µmol Pi/min/mg
PGP activity (PGP; 2 µM CP2, PG 100 µM): 2.9433 µmol Pi/min/mg and 3.424 µmol Pi/min/mg and 3.784 µmol Pi/min/mg
PGP activity (PGP; 2 µM CP2, PG 200 µM): 6.247 µmol Pi/min/mg and 7.088 µmol Pi/min/mg and 7.028 µmol Pi/min/mg
PGP activity (PGP; 2 µM CP2, PG 300 µM): 7.39 µmol Pi/min/mg and 11.3555 µmol Pi/min/mg and 12.0765 µmol Pi/min/mg
PGP activity (PGP; 2 µM CP2, PG 400 µM): 12.7975 µmol Pi/min/mg and 13.6988 µmol Pi/min/mg and 14.4198 µmol Pi/min/mg
PGP activity (PGP; 2 µM CP2, PG 500 µM): 16.763 µmol Pi/min/mg and 16.4025 µmol Pi/min/mg
PGP activity (PGP; 2 µM CP2, PG 600 µM): 17.8444 µmol Pi/min/mg and 17.3037 µmol Pi/min/mg and 17.6642 µmol Pi/min/mg
PGP activity (PGP; 2 µM CP2, PG 700 µM): 19.2864 µmol Pi/min/mg and 19.1062 µmol Pi/min/mg
PGP activity (PGP; 2 µM CP2, PG 800 µM): 20.3679 µmol Pi/min/mg and 20.7284 µmol Pi/min/mg and 19.2864 µmol Pi/min/mg
PGP activity (PGP; 4 µM CP2, PG 50 µM): 1.502 µmol Pi/min/mg and 0.7809 µmol Pi/min/mg and 1.321 µmol Pi/min/mg
PGP activity (PGP; 4 µM CP2, PG 100 µM): 2.523 µmol Pi/min/mg and 1.742 µmol Pi/min/mg and 2.222 µmol Pi/min/mg
PGP activity (PGP; 4 µM CP2, PG 200 µM): 4.745 µmol Pi/min/mg and 4.565 µmol Pi/min/mg
PGP activity (PGP; 4 µM CP2, PG 300 µM): 8.4716 µmol Pi/min/mg and 6.669 µmol Pi/min/mg and 5.7679 µmol Pi/min/mg
PGP activity (PGP; 4 µM CP2, PG 400 µM): 10.8148 µmol Pi/min/mg and 9.012 µmol Pi/min/mg
PGP activity (PGP; 4 µM CP2, PG 500 µM): 11.1753 µmol Pi/min/mg and 11.8963 µmol Pi/min/mg and 10.8148 µmol Pi/min/mg
PGP activity (PGP; 4 µM CP2, PG 600 µM): 12.437 µmol Pi/min/mg and 12.9778 µmol Pi/min/mg
PGP activity (PGP; 4 µM CP2, PG 700 µM): 13.5185 µmol Pi/min/mg and 14.0593 µmol Pi/min/mg and 12.9778 µmol Pi/min/mg
PGP activity (PGP; 4 µM CP2, PG 800 µM): 13.3383 µmol Pi/min/mg and 13.879 µmol Pi/min/mg and 14.6 µmol Pi/min/mg
